Patent US11040101B2, “Nanoparticles for cancer therapy and diagnosis” (UCL BUSINESS PLC, priority 2019, dated 2021)

Molecular target: cathepsin B (Homo sapiens, UniProt P07858)
Assay: Time-dependent fluorescence emission of ICG systems with or without cathepsin B
Assay type: biochemical
Settings: after 24 h at 37° C. in PBS
Experimental: The equivalent ICG concentration in all systems was 6 μg/mL. Fluorescence emission spectra of these systems were acquired over the course of 48 h. The excitation wavelength of 740 nm was used to obtain the fluorescence spectra. For the afore-mentioned experiments, spectra and fluorescence intensities were obtained using a CLARIOstar® High Performance Monochromator Multimode microplate reader (BMG LABTECH, UK).

## CC1(C)C(/C=C/C=C/C=C/C=C2\N(CCCCS(=O)(=O)O)c3ccc4ccccc4c3C2(C)C)=[N+](CCCCS(=O)(=O)[O-])c2ccc3ccccc3c21 [free ICG, Indocyanine green]
  fluorescence emission of free ICG: suppressed
